According to US6348317B1, “Fluorescent and DNA cleavage properties of peptide/dye conjugates” (The Arizona Board of Regents, priority 1999, dated 2002):

Tests used:
Experiment in all cases: Thiazole orange total fluorescence titration with unlabeled DNA
[1] = molecular target: GRE1 dsDNA (native GRE target sequence); conditions: TO fluorescence ex 510 nm, em 535 nm; read-out: dissociation constant, two-state binding model
Procedure: (§1) Fluorescence Measurements. Steady state fluorescence anisotropy measurements were carried out in 20 mM Tris (pH 7.9), 30 mM NaCl, 20 mM KCl, 1 mM MgCl2, and 5% glycerol. […] DNA samples used were either the non-labeled sequences shown in FIG. 2 or a fluorescein labeled duplex with a sequence matching GRE2 (FIG. 2).
(§2) For non-labeled DNA titrations (measuring the fluorescence from thiazole orange), the excitation wavelength was 510 nm and the emission was recorded at 535 nm with a 1.0 nm slit width. Glass cuvettes were used with a 0.3 cm path length. Titrations were performed using a constant concentration of unconjugated thiazole orange (TO) or TO-ZF and titrated with DNA as indicated.
(§3) Total fluorescence data were collected in parallel to the anisotropy measurements and were calculated from raw data as the fluorescence intensity in the vertical plane plus two times the fluorescence intensity of the horizontal plane, (TF=Ivv+2Ivh). These values were used to determine the percent of the maximum fluorescence for each point along the titration and fit to equation 2. [formula]
(§4) In equation 2, f corresponds to the fraction of TO-ZF conjugate bound at a given concentration of DNA. The concentration given as [TO(ZF)]T corresponds to either the unconjugated thiazole orange or the TOZF conjugate as indicated and [GRE]T is the total concentration of GRE binding sites. The parameter of the fit was the dissociation constant (Kd).
(§5) Titrations of the TO fluorescence upon binding of TO-ZF to unlabeled DNA were measured for the dsDNA sequences shown in FIG. 2. TO fluorescence was excited at 510 nm and collected at 535 nm. The GRE1 DNA sequence contains the same binding site as does the GRE2 DNA sequence used above, however, the GRE3 sequence contains a single mutation of the guanine in the native GRE target sequence (5′-TGTTCT-3′) to an adenine. The GRE2 and GRE3 sequences were generated for use in the photocleavage measurements described below. Finally, the GRE4 and ERE recognition sequences are from the non-specific GRE halfsite and the estrogen response element (ERE), respectively. M. A. L. Eriksson, J. Molec. Biol. 253:453-472 (1995). These are used in conjunction with the other sequences to determine the sensitivity of this probe. The DNA is not fluorescently labeled in these measurements. Therefore, the fluorescence is exclusively from thiazole orange molecules intercalated into dsDNA.
(§6) Fitting the binding curves to a two-state binding model (see Materials and Methods) results in a dissociation constant of 25 nM for GRE1 and GRE2, which contain the native GRE. Titrations of the modified GRE sequences and the ERE sequence yielded binding constants of 57 nM, 220 nM and 810 nM for the TO-ZF conjugate bound to GRE3, GRE4, and ERE, respectively.

[2] = molecular target: GRE3 dsDNA (guanine of GRE changed to adenine); conditions: TO fluorescence ex 510 nm, em 535 nm; read-out: binding constant (dissociation constant)
Procedure: as §1, §2, §3, §4, §5, §6

[3] = molecular target: GRE2 dsDNA (native GRE target sequence); conditions: TO fluorescence ex 510 nm, em 535 nm; read-out: dissociation constant, two-state binding model
Procedure: as §1, §2, §3, §4, §5, §6

[4] = molecular target: ERE dsDNA (estrogen response element); conditions: TO fluorescence ex 510 nm, em 535 nm; read-out: binding constant (dissociation constant)
Procedure: as §1, §2, §3, §4, §5, §6

[5] = molecular target: GRE4 dsDNA (non-specific GRE halfsite); conditions: TO fluorescence ex 510 nm, em 535 nm; read-out: binding constant (dissociation constant)
Procedure: as §1, §2, §3, §4, §5, §6

TO-ZF: 29 amino acid single zinc finger from residues 438-465 of glucocorticoid receptor, thiazole orange coupled to a lysine ε-amine
Kd [1]: 25 nM | Kd [2]: 57 nM | Kd [3]: 25 nM | Kd [4]: 810 nM | Kd [5]: 220 nM
